Test results as given in article PMC10482942, “Novel quinazoline-1,2,3-triazole hybrids with anticancer and MET kinase targeting properties” (Scientific Reports, 2023).

Key:
[1] = system: K562 cells; test: SRB antiproliferative assay, monolayer culture; format: cell-based, human; conditions: mean ± S.E.M.
Protocol: (§1) EBC-1 (human lung […] cells with MET gene amplification) and Mia-Paca-2 (human PDAC cells) were obtained from Japanese Collection of Research Bio Resources Cell Bank (JCRB). AsPC-1 (human PDAC), MKN-45 (human gastric adenocarcinoma cells with MET gene amplification), HT-29 (human colorectal adenocarcinoma), and K562 cells (human chronic myelogenous leukemia) were obtained from the Iranian Biological Resource Centre, Tehran, Iran. AsPC-1, EBC-1, MKN-45, and K562 cells were cultured in RPMI 1640 medium containing 10% heat-inactivated fetal bovine serum (FBS) and 1% penicillin/streptomycin. Mia-Paca-2 and HT-29 cells were grown in DMEM low glucose, containing 10% and 20% heat-inactivated FBS, resoectively and 100 U/ml penicillin/streptomycin. All cells were grown in monolayer cultures at 37 °C in a humidified incubator with 5% CO2.
(§2) Antiproliferative effects of synthetic compounds were evaluated by the SRB assay as described previously. Cancer cells were trypsinized, homogenous cell suspensions were prepared and 100 µl of cell suspensions were cultured at the densities of 5 × 10^4 cells/ml (for AsPC-1 and Mia-Paca-2), 4 × 10^4 cells/m (for EBC-1 and MKN-45), 3 × 10^4 cells/ml (for K562) and 1 × 10^4 cells/ml (for HT-29) in 96-well flat-bottom plates. After 24 h of incubation to allow cells to attach and resume optimal growth, the synthetic compounds dissolved in DMSO and diluted in the growth medium were added. One hundred µl of synthesized derivatives were added at different concentrations in triplicate and incubated for an additional 72 h at 37 °C. The cells were then fixed by gentle addition of 50 μl cold trichloroacetic acid (TCA) 50% (w/v, 10% final concentration) and incubated for 60 min at 4 °C. Then, the supernatant was discarded, and the plates were washed four times with distilled water and air dried. Afterwards, 100 μl of SRB solution 0.04% (w/v) dissolved in 1% acetic acid was added to each well, and plates were incubated for 15 min at room temperature. At the next step, the unbound dye was removed by washing four times with 1% acetic acid and the plates were air dried. The bound stain was finally solubilized with 150 μl of 10 mM Tris base solution, and the absorbance was recorded at a wavelength of 540 nm with a Bio-Tek microplate reader (Model Synergy HTX).

[2] = system: EBC-1 cells; test: SRB antiproliferative assay, monolayer culture; format: cell-based, human; conditions: mean ± S.E.M.
Protocol: as §1, §2

[3] = system: AsPC-1 cells; test: SRB antiproliferative assay, monolayer culture; format: cell-based, human; conditions: mean ± S.E.M.
Protocol: as §1, §2

[4] = system: HT-29 cells; test: SRB antiproliferative assay, monolayer culture; format: cell-based, human; conditions: mean ± S.E.M.
Protocol: as §1, §2

[5] = system: Mia-Paca-2 cells; test: SRB antiproliferative assay, monolayer culture; format: cell-based, human; conditions: mean ± S.E.M.
Protocol: as §1, §2

[6] = system: MKN-45 cells; test: SRB antiproliferative assay, monolayer culture; format: cell-based, human; conditions: mean ± S.E.M.
Protocol: as §1, §2

Row | Structure (SMILES) | IC50 ([1]; Homo sapiens, K562, 72 h) [µM] | IC50 ([2]; Homo sapiens, EBC-1, 72 h) [µM] | IC50 ([3]; Homo sapiens, ASPC1, 72 h) [µM] | IC50 ([4]; Homo sapiens, HT-29, 72 h) [µM] | IC50 ([5]; Homo sapiens, MIA PaCa-2, 72 h) [µM] | IC50 ([6]; Homo sapiens, MKN-45, 72 h) [µM] | melting point [°C] | IC50 ([1]; 72 h) [µM] | IC50 ([2]; 72 h) [µM] | IC50 ([3]; 72 h) [µM] | IC50 ([4]; 72 h) [µM] | IC50 ([5]; 72 h) [µM] | IC50 ([6]; 72 h) [µM]
1 | COc1cc2nccc(Oc3ccc(NC(=O)C4(C(=O)Nc5ccc(F)cc5)CC4)cc3)c2cc1OC [Cabozantinib, reference compound] | 4 ± 1 | 0.059 ± 0.014 | 1.4 ± 0.1 | 3.7 ± 0.67 | 3.8 ± 0.6 | 1.04 ± 0.06 | – | – | – | – | – | – | –
2 | Brc1ccc(Cn2cc(COc3ccc(C=NNc4ncnc5ccccc45)cc3)nn2)cc1 [Compound 8a, 2-(4-((1-(4-Bromobenzyl)-1H-1,2,3-triazol-4-yl)methoxy)benzylidene)-1-(quinazolin-4-yl)hydrazine] | 57.4 ± 21.9 | > 100 | > 100 | > 100 | > 100 | > 100 | 207.3 | – | – | – | – | – | –
3 | Fc1ccc(Cn2cc(COc3ccc(C=NNc4ncnc5ccccc45)cc3)nn2)cc1 [Compound 8b, 2-(4-((1-(4-Fluorobenzyl)-1H-1,2,3-triazol-4-yl)methoxy)benzylidene)-1-(quinazolin-4-yl)hydrazine] | > 100 | > 100 | > 100 | > 100 | > 100 | > 100 | 204.9 | – | – | – | – | – | –
4 | Clc1ccc(Cn2cc(COc3ccc(C=NNc4ncnc5ccccc45)cc3)nn2)cc1Cl [Compound 8d, 2-(4-((1-(3,4-Dichlorobenzyl)-1H-1,2,3-triazol-4-yl)methoxy)benzylidene)-1-(quinazolin-4-yl)hydrazine] | > 100 | > 100 | > 100 | 93.4 ± 2.2 | > 100 | 83.6 ± 6 | 224.6 | – | – | – | – | – | –
5 | Clc1ccc(Cn2cc(COc3ccc(C=NNc4ncnc5ccccc45)cc3)nn2)cc1 [Compound 8e, 2-(4-((1-(4-Chlorobenzyl)-1H-1,2,3-triazol-4-yl)methoxy)benzylidene)-1-(quinazolin-4-yl)hydrazine] | 61.5 ± 21.6 | > 100 | > 100 | > 100 | > 100 | > 100 | – | – | – | – | – | – | –
6 | O=[N+]([O-])c1ccc(Cn2cc(COc3ccc(C=NNc4ncnc5ccccc45)cc3)nn2)cc1 [Compound 8f, 2-(4-((1-(4-Nitrobenzyl)-1H-1,2,3-triazol-4-yl)methoxy)benzylidene)-1-(quinazolin-4-yl)hydrazine] | > 100 | > 100 | > 100 | > 100 | > 100 | 56.6 ± 6.5 | 208.4 | – | – | – | – | – | –
7 | C(=NNc1ncnc2ccccc12)c1ccc(OCc2cn(Cc3ccccc3)nn2)cc1 [Compound 8g, 2-(4-((1-Benzyl-1H-1,2,3-triazol-4-yl)methoxy)benzylidene)-1-(quinazolin-4-yl)hydrazine] | 96.6 ± 1.1 | > 100 | > 100 | > 100 | > 100 | 67.7 ± 4.6 | 218.6 | – | – | – | – | – | –
8 | O=C1c2ccccc2C(=O)N1CCCn1cc(COc2ccccc2C=NNc2ncnc3ccccc23)nn1 [Compound 8i] | – | – | – | – | – | – | – | 86.2 ± 3 | 89.4 ± 4.3 | > 100 | > 100 | > 100 | > 100
9 | C[C@@H](Oc1cc(-c2cnn(C3CCNCC3)c2)cnc1N)c1c(Cl)ccc(F)c1Cl [Crizotinib, reference compound] | – | 0.006 ± 0.001 | 2.45 ± 1.3 | – | 2.36 ± 1.2 | 0.05 ± 0.003 | – | – | – | – | – | – | –
